Measured values from patent US20040058948A1, “Mappicine analogs, methods of inhibiting retroviral reverse transcriptase and methods of treating retroviruses” (priority 2002, published 2004).

Key:
[1] = target: T1, RNA-dependent DNA polymerase activity of HIV reverse transcriptase (Human immunodeficiency virus type 1 group M subtype B, UniProt P04585); assay: RNA-dependent DNA polymerase activity assay of HIV reverse transcriptase; format: biochemical, HIV-1; conditions: 10 μM inhibitor concentration; activity with analog / without analog x 100
T1 construct: made in house
Method: In separate, representative assays, mappicine analogs were tested for their ability to inhibit the RNA-dependent DNA polymerase activity of HIV reverse transcriptase and for their ability to inhibit the RNase H activity of HIV reverse transcriptase. The assay for RNA-dependent DNA polymerase activity is discussed in Borkow, G. et al., “Inhibition of the Ribonuclease H and DNA Polymerase Activities of HIV-1 Reverse Transcriptase by N-(4-tert-Butylbenzoyl)-2-hydroxy-1-naphthaldehyde Hydrazone,” Biochemistry 1997, 36, 3179-3185, a copy of which is attached hereto, and the disclosure of which is incorporated herein by reference. Assays were carried out in the absence and in the presence of mappicine analogs (10 μM final concentration). The results are reported as % residual activity, which is the RNA-dependent DNA polymerase activity of the enzyme in the presence of the mappicine analog divided by the RNA-dependent activity of the enzyme in the absence of the mappicine analog, multiplied by 100.

[2] = target: RNase H activity of HIV reverse transcriptase (Human immunodeficiency virus type 1 group M subtype B, UniProt P04585); assay: Fluorescence (FRET)-based RNase H activity assay of HIV reverse transcriptase; format: biochemical, HIV-1; set-up: final concentration of 2.5 nM of the p51/p66 RT heterodimer in the assay; made in house; conditions: 10 μM inhibitor concentration; activity with analog / without analog x 100
Method: Recently, a fluorescence-based assay to perform preliminary screens in search of HIV RNase H inhibitors has been developed. The assay, which is carried out in 96-well microplates and is adaptable to robotics, is the first high-throughput screen for RNase H and is described in further detail in the Experimental section. HIV-1 RT and human RNase H were cloned, and thus comparative analysis of inhibitor action could be conducted simultaneously.
The assay for RNase H activity of HIV reverse transcriptase was the fluorescence-based assay described in detail in the Experimental section and discussed in U.S. Provisional Patent Application Serial No. 60/318,359. Assays were carried out in the absence and in the presence of mappicine analogs (10 μM final concentration). The results are reported as % residual activity, which is the RNase H activity of the enzyme in the presence of the mappicine analog divided by the RNase H activity of the enzyme in the absence of the mappicine analog, multiplied by 100. Alternatively, the results are reported as % inhibition, which is calculated as the ratio of the RNase H activity of the enzyme in the presence of the mappicine analog to the enzyme activity in the absence of the mappicine analog, multiplied by 100, and then subtracting this number from 100.
Assay for Ribonuclease H Activity Based on Fluorescence Resonance Energy Transfer (FRET)
Preparation of the Fluorophore-RNA/Quencher-DNA Hybrid Duplex Substrate.
The RNA/DNA hybrid duplex substrate for use in the assay comprises an RNA oligonucleotide of sequence 5′-GAU CUG AGC CUG GGA GCU-3′, modified at the 3′-end with Aminolink-2 and derivatized with fluorescein isothiocyanate, to provide a modified RNA oligonucleotide of the sequence 5′-GAU CUG AGC CUG GGA GCU-fluorescein-3′, annealed to a complementary DNA oligonucleotide of the sequence 5′-AGC TCC CAG GCT CAG ATC-3′ modified at the 5′-end with Aminolink-2 and derivatized with the FRET acceptor DABCYL succinimidyl ester, to provide a modified DNA oligonucleotide of the sequence 5′-DABCYL-AGC TCC CAG GCT CAG ATC-3′.
To prepare the 3′-fluorescein-RNA/5′-DABCYL-DNA hybrid duplex substrate, a known amount of 3′-fluorescein-RNA was dissolved in 20 mM Tris buffer (pH 8.0, 37° C.) to provide a final concentration of 5 μM. Two equivalents of the 5′-DABCYL-DNA oligonucleotide were added, and the mixture was heated to 90° C. for 5 min and cooled slowly to room temperature to allow duplex formation. The positioning of the fluorescein donor at the 3′-end of the RNA oligonucleotide and the DABCYL acceptor at the 5′-end of the DNA oligonucleotide provides a very close proximity of the donor and acceptor that results in a very intense quenching of the fluorescein emission in the intact RNA/DNA hybrid duplex substrate due to the spectral overlap of the fluorescence emission of fluorescein with the absorption spectrum of DABCYL. In addition, DABCYL is non-fluorescent, and thus cannot contribute any light emission. Both of these factors result in a very low background and provide a high signal-to-noise in the assay measurements. The ratio of the donor fluorescence in the absence and in the presence of its quencher is approximately fifteen-fold.
Microplate Assay Protocol for the Measurement of RNase H Activity Using the RNA/DNA Hybrid Duplex Substrate.
Reaction assay mixtures contained 5 μl of a stock solution of 2.5 μM RNA/DNA hybrid duplex substrate added to 85 μl of assay buffer (50 mM Tris, pH 8.0, 37° C., containing 60 mM KCl and 2.5 mM MgCl2), prepared in the wells of a 96-well fluorescence microtiter plate, and warmed to 37° C. using the temperature control of the SpectraMax Gemini XS microplate spectrofluorometer (Molecular Devices). Reactions were started by the addition of 5 μl of a solution of recombinant HIV-1 reverse transcriptase (usually providing a final concentration of 2.5 nM of the p51/p66 RT heterodimer in the assay), and mixing using the automatic mixing function of the microplate spectrofluorometer. […]

Row | SMILES | Residual activity (%) Polymerase [1] | Residual activity (%) RNase H [2]
1 | CCC(O)c1cc2n(c(=O)c1C)Cc1c-2nc2ccccc2c1-c1ccccc1 (racemic) [3Aα] | 90% | 97%
2 | Cc1c(C(O)C(C)(C)C)cc2n(c1=O)Cc1c-2nc2ccccc2c1-c1ccccc1 (racemic) [3Aβ] | 54% | 95%
3 | Cc1c(C(O)CCC2CCCCC2)cc2n(c1=O)Cc1c-2nc2ccccc2c1-c1ccccc1 (racemic) [3Aδ] | 32% | 104%
4 | CCC(O)c1cc2n(c(=O)c1C)Cc1c-2nc2ccc(F)cc2c1-c1ccccc1 (racemic) [3Bα] | 54% | 83%
5 | Cc1c(C(O)C(C)(C)C)cc2n(c1=O)Cc1c-2nc2ccc(F)cc2c1-c1ccccc1 (racemic) [3Bβ] | 78% | 75%
6 | Cc1c(C(O)CCC2CCCCC2)cc2n(c1=O)Cc1c-2nc2ccc(F)cc2c1-c1ccccc1 (racemic) [3Bδ] | 81% | 99%
7 | Cc1c(C(O)Cc2ccccc2)cc2n(c1=O)Cc1c-2nc2ccc(F)cc2c1-c1ccccc1 (racemic) [3Bε] | 28% | 91%
8 | CCC(O)c1cc2n(c(=O)c1C)Cc1c-2nc2ccc(C)cc2c1-c1ccccc1 (racemic) [3Cα] | 64% | 96%
9 | Cc1ccc2nc3c(c(-c4ccccc4)c2c1)Cn1c-3cc(C(O)C(C)(C)C)c(C)c1=O (racemic) [3Cβ] | 70% | 84%
10 | Cc1ccc2nc3c(c(-c4ccccc4)c2c1)Cn1c-3cc(C(O)Cc2ccccc2)c(C)c1=O (racemic) [3Cε] | 76% | 101%
11 | CCC(O)c1cc2n(c(=O)c1C)Cc1c-2nc2ccc(OC)cc2c1-c1ccccc1 (racemic) [3Dα] | 69% | 78%
12 | COc1ccc2nc3c(c(-c4ccccc4)c2c1)Cn1c-3cc(C(O)CCC2CCCCC2)c(C)c1=O (racemic) [3Dδ] | 60% | 67%
13 | COc1ccc2nc3c(c(-c4ccccc4)c2c1)Cn1c-3cc(C(O)Cc2ccccc2)c(C)c1=O (racemic) [3Dε] | 61% | 79%
14 | CCC(O)c1cc2n(c(=O)c1C)Cc1c-2nc2ccccc2c1[Si](C)(C)C(C)(C)C (racemic) [4Aα] | 67% | 104%
15 | Cc1c(C(O)C(C)(C)C)cc2n(c1=O)Cc1c-2nc2ccccc2c1[Si](C)(C)C(C)(C)C (racemic) [4Aβ] | 71% | 101%
16 | Cc1c(C(O)CCC2CCCCC2)cc2n(c1=O)Cc1c-2nc2ccccc2c1[Si](C)(C)C(C)(C)C (racemic) [4Aδ] | 45% | 95%
17 | Cc1c(C(O)Cc2ccccc2)cc2n(c1=O)Cc1c-2nc2ccccc2c1[Si](C)(C)C(C)(C)C (racemic) [4Aε] | 83% | 93%
18 | CCC(O)c1cc2n(c(=O)c1C)Cc1c-2nc2ccc(F)cc2c1[Si](C)(C)C(C)(C)C (racemic) [4Bα] | 98% | 108%
19 | Cc1c(C(O)C(C)(C)C)cc2n(c1=O)Cc1c-2nc2ccc(F)cc2c1[Si](C)(C)C(C)(C)C (racemic) [4Bβ] | 49% | 113%
20 | Cc1ccc2nc3c(c([Si](C)(C)C(C)(C)C)c2c1)Cn1c-3cc(C(O)CCC2CCCCC2)c(C)c1=O (racemic) [4Cδ] | 61% | 109%
21 | COc1ccc2nc3c(c([Si](C)(C)C(C)(C)C)c2c1)Cn1c-3cc(C(O)C(C)(C)C)c(C)c1=O (racemic) [4Dβ] | 47% | 91%
